In patent US7868031B2, “Propionamide compounds as antiinflammatory agents” (Roche Palo Alto LLC, priority 2005, dated 2011):

Target: T1, Human recombinant purified glucocorticoid receptor (Homo sapiens, UniProt P04150)
T1 sequence (P04150 1-777): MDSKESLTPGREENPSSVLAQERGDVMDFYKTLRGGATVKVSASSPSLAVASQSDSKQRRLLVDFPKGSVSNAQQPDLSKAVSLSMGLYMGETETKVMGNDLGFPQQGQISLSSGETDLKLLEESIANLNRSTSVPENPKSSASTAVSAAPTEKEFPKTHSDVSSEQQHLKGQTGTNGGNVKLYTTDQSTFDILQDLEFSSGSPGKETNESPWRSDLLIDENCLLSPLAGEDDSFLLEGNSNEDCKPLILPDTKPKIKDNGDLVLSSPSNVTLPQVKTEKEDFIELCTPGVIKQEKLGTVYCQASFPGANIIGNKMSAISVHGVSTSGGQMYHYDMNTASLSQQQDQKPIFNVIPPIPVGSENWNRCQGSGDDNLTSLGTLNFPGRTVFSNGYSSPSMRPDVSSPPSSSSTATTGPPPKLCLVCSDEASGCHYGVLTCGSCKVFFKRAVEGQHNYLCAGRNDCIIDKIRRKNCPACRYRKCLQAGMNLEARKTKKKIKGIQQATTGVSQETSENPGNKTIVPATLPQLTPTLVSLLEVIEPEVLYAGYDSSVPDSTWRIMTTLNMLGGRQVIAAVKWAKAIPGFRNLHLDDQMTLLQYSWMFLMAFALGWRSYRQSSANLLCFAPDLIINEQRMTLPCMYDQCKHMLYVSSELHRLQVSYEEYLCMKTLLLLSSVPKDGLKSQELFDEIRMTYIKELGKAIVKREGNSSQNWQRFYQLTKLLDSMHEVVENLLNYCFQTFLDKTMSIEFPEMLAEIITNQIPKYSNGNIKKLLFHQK
Experiment: Glucocorticoid receptor competitive binding assay (3H-dexamethasone)
Settings: competition with 2 nM 3H-dexamethasone; GR at 1 nM; 4° C. overnight; read-out: Binding Affinity Ki
Experimental: The affinity of glucocorticoid receptor antagonists for the glucocorticoid receptor was determined in competitive binding assays by the ability of the antagonist to compete with tritiated dexamethasone. All assay steps were performed on ice in 96-well plates. Binding buffer contained 10 mM potassium phosphate pH 7.4, 20 mM Na2Mo4, 100 μM EDTA, 2% DMSO, and 5 mM DTT. Human recombinant purified glucocorticoid receptor was used at 1 nM. Compounds tested had up to 2% DMSO final concentration. Non-specific binding condition was 1 μM dexamethasone. The radioligand used for the competition assay was 2 nM ^3H-dexamethasone (83 Ci/mmol stock solution). Buffer, compounds or vehicles, GR, and radioligand were incubated at 4° C. overnight. Unifilter GF/B 96-well filter plates were treated with 0.5% PEI after incubation. Samples were transferred to filter plates by a cell harvester.
Filter plates were washed five times with 50 mM Tris pH 7.5 and 5 mM EDTA wash buffer. Samples were dried at 65° C. for about 1 hr. Scintillation fluid was added to filter plates at 50 μL/well and ^3H cpm were measured on a TopCount scintillation counter.

| SMILES | Ki [nM] |
| --- | --- |
| O=C(Nc1ccc(-c2ncco2)cc1)C(O)(CC1(c2ccccc2C(F)(F)F)CCC1)C(F)(F)F (stereo not shown) [Example 1, 3,3,3-Trifluoro-2-hydroxy-N-(4-oxazol-2-yl-phenyl)-2-[1-(2-trifluoromethyl-phenyl)-cyclobutylmethyl]-propionamide] | 161 |
| O=C(Nc1cccc(-c2cnco2)c1)C(O)(CC1(c2ccccc2C(F)(F)F)CCC1)C(F)(F)F (stereo not shown) [Example 2, 3,3,3-Trifluoro-2-hydroxy-N-(3-oxazol-5-yl-phenyl)-2-[1-(2-trifluoromethyl-phenyl)-cyclobutylmethyl]-propionamide] | 13.5 |
| Cc1noc(-c2ccc(NC(=O)C(O)(CC3(c4ccccc4C(F)(F)F)CCC3)C(F)(F)F)cc2)n1 (stereo not shown) [Example 3, 3,3,3-Trifluoro-2-hydroxy-N-[4-(3-methyl-[1,2,4]oxadiazol-5-yl-)-phenyl]-2-[1-(2-trifluoromethyl-phenyl)-cyclobutylmethyl]-propionamide] | 25.2 |
| CCOC(=O)C(O)c1ccc(NC(=O)C(O)(CC2(c3ccccc3C(F)(F)F)CCC2)C(F)(F)F)cc1 (stereo not shown) [Example 4, Hydroxy-(4-{3,3,3-trifluoro-2-hydroxy-2-[1-(2-trifluoromethyl-phenyl)-cyclobutylmethyl]-propionylamino}-phenyl)-acetic acid ethyl ester] | 555 |
